Where two headings read alike, the source gives them in different places.
Experiments:
[1] = system: Aβ40 in conditioned medium of cells stably expressing Amyloid Precursor Protein (APP); experiment: In vitro BACE cell-based assay (Aβ40 in conditioned medium, sandwich ELISA); details: Homo sapiens;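 note: compounds added as a dilution series, secreted peptide quantified by europium time-resolved fluorescence readout, potency fitted from percent of control versus compound concentration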
[2] = biological target: CYP2D6 (Homo sapiens, UniProt P10635); experiment: CYP2D6 inhibition assay (bufuralol, pooled human liver microsomes)
[3] = biological target: CYP3A4 (CYP3A) (Homo sapiens, UniProt P08684); experiment: in vitro; details: microsomes, pH 7.4;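 note: inhibition of CYP3A-mediated 1-hydroxymidazolam formation after 10 min incubation with NADPH, quantified by HPLC MS relative to metabolite produced without test compound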
[4] = Microsomal stability assay, rat liver microsomes;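 note: rat liver microsomes (0.25 mg/mL) with about 1 µM compound plus 1 mM NADPH, pH 7.4, 37 °C for 30 min, parent left measured by LC-MS/MS against 0 min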
[5] = biological target: Beta Secretase enzyme (BACE) (Homo sapiens, UniProt P56817); experiment: In vitro enzymatic BACE FRET (fluorescence resonance energy transfer) assay; type: biochemical;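 note: fluorescence read after 1 h with 50 nM quenched peptide substrate spanning the BACE cleavage site, in pH 4.2 acetate buffer containing 10% DMSO and nonionic detergent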
[6] = Microsomal stability assay, human liver microsomes;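 note: pooled human liver microsomes at 0.25 mg/mL with 1 µM compound and NADPH at 37 °C, pH 7.4, for 30 min, unchanged parent quantified by LC-MS/MS against the 0 min sample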
[7] = HEK293, HEK cell-based assay, IC50's in uM, read-out: HEK cell assay
[8] = 2D6 IC50 (uM), CYP enzyme inhibition
[9] = BACE enzyme assay, IC50's in uM, read-out: BACE1 FRET assay
[10] = HEK293, HEK cell-based assay IC50, read-out: HEK cell assay
[11] = 2D6 IC50 (uM), CYP2D6 inhibition
[12] = BACE enzyme assay IC50, read-out: BACE1 FRET assay
[13] = HEK293, HEK cells, read-out: HEK cell assay (IC50)
[14] = read-out: BACE1 FRET assay (IC50)

Sequence of Beta Secretase enzyme (BACE) (P56817 46-501): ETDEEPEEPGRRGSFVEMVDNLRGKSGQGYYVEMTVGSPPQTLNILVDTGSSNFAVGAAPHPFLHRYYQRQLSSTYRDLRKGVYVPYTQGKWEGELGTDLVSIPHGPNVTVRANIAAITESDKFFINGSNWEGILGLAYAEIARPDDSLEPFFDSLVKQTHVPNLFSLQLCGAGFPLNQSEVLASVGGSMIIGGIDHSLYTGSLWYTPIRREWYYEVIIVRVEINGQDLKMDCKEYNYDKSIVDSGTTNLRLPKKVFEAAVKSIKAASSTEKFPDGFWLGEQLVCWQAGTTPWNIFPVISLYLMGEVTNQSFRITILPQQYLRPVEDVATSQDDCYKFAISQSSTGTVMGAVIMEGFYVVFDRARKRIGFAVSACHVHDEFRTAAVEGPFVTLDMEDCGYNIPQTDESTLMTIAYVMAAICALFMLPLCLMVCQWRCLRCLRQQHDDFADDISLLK
Sequence of CYP3A4 (CYP3A) (P08684 2-503): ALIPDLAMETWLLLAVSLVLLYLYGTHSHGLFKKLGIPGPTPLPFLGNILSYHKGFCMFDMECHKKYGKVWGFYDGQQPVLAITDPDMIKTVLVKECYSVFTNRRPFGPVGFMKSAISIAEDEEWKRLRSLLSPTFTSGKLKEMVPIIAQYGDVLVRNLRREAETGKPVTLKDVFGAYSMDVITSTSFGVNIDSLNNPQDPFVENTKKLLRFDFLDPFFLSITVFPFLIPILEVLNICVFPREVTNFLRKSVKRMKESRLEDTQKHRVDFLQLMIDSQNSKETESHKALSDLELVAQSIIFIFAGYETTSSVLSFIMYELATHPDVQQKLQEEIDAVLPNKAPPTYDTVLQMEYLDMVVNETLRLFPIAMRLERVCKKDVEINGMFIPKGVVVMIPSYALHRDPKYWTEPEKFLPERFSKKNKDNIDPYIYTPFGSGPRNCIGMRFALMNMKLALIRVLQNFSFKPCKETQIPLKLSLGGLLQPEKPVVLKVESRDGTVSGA
Sequence of CYP2D6 (P10635 whole entry): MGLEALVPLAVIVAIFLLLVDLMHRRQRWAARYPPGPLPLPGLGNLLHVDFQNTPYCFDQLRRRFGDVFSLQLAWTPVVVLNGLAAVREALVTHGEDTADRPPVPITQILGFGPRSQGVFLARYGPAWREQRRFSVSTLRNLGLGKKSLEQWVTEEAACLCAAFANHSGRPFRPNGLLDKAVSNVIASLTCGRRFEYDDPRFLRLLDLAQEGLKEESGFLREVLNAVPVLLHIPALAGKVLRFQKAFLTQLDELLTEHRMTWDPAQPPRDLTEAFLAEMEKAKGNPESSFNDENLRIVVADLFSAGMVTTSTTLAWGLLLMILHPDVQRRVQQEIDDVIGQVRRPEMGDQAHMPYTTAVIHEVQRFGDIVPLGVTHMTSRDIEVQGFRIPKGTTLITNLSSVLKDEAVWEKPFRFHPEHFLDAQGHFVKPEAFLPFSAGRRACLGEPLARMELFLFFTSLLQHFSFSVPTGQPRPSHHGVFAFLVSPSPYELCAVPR

| SMILES | IC50 [3] [nM] | RLM ([4]; rat liver microsomal data) [µL/min/mg] | HLM ([6]; human liver microsomal data) [µL/min/mg] | IC50 [1, 10] [µM] | IC50 [2, 11] [µM] | RLM ([4]; rat liver microsomes) [µL/min/mg] | IC50 [5, 12] [µM] | HLM ([6]; human liver microsomes) [µL/min/mg] | IC50 [1, 13] [µM] | IC50 ([2]; 2D6 IC50, CYP2D6 inhibition) [µM] | IC50 [5, 14] [µM] | other results |
| --- | --- | --- | --- | --- | --- | --- | --- | --- | --- | --- | --- | --- |
| COCC(=O)N[C@H](Cc1cccc(-c2nccs2)c1)[C@@H](O)CN[C@H]1CC2(CCC2)Oc2ncc(C3CCCC3)cc21 [compound 810] | 100 | 271 | 274 | – | – | – | – | – | – | – | – | IC50 [1, 7]: 1.34 µM; IC50 [2, 8]: 0.5 µM; IC50 [5, 9]: 4.49 µM |
| COCC(=O)N[C@@H](Cc1ccc(F)c(-c2cncs2)c1)[C@H](O)CN[C@H]1CC2(CCC2)Oc2ncc(CC(C)(C)C)cc21 [compound 684, N-((1S,2R)-3-(((4′S)-6′-(2,2-dimethylpropyl)-3′,4′-dihydrospiro[cyclobutane-1,2′-pyrano[2,3-b]pyridin]-4′-yl)amino)-1-(4-fluoro-3-(1,3-thiazol-5-yl)benzyl)-2-hydroxypropyl)-2-methoxyacetamide] | 100 | – | – | 0.012 | 0.2 | 114 | 0.005 | 56 | – | – | – | – |
| CO[C@H](C)C(=O)N[C@@H](Cc1ccc2c(c1)OCO2)[C@H](O)CN[C@H]1CC2(CCC2)Oc2c1cc(CC(C)C)nc2Cl [compound 657, (2R)-N-((1S,2R)-1-(1,3-benzodioxol-5-ylmethyl)-3-(((4′S)-8′-chloro-6′-(2-methylpropyl)-3′,4′-dihydrospiro[cyclobutane-1,2′-pyrano[2,3-c]pyridin]-4′-yl)amino)-2-hydroxypropyl)-2-methoxypropanamide] | 160 | – | – | – | – | 178 | – | 96 | 0.524 | 5.3 | 0.03 | – |
| COCC(=O)N[C@@H](Cc1cccc([C@@H]2CCCO2)c1)[C@H](O)CN[C@H]1CC2(CCC2)Oc2ncc(CC(C)(C)C)cc21 [compound 915] | 600 | 590 | 921 | – | – | – | – | – | – | – | – | IC50 ([1]; HEK293, cell-based assay, HEK cells, IC50's in uM, read-out: HEK cell assay): 0.562 µM; IC50 ([2]; 2D6 IC50, CYP enzyme inhibition): 6.8 µM; IC50 [5, 9]: 1.96 µM |
| CC(=O)N[C@@H](Cc1cc(F)cc(F)c1)[C@H](O)CN[C@H]1CC2(CCC2)Oc2c(-c3ccncc3)cc(Cl)cc21 [compound 582] | 100 | – | – | – | – | 829 | – | 97 | 0.057 | 0.4 | 0.024 | – |
| COCC(=O)N[C@@H](Cc1cc(F)cc(-c2nccs2)c1)[C@H](O)CN[C@H]1CC2(CCC2)Oc2cnc(CC(C)(C)F)cc21 [compound 718, N-((1S,2R)-3-(((4′S)-6′-(2-fluoro-2-methylpropyl)-3′,4′-dihydrospiro[cyclobutane-1,2′-pyrano[2,3-c]pyridin]-4′-yl)amino)-1-(3-fluoro-5-(1,3-thiazol-2-yl)benzyl)-2-hydroxypropyl)-2-methoxyacetamide] | 300 | – | – | 0.062 | 0.5 | 140 | 0.051 | 113 | – | – | – | – |
| CO[C@H](C)C(=O)N[C@@H](Cc1cc(F)cc(-c2nccs2)c1)[C@H](O)CNC1CC2(CCC2)Oc2ncc(CC(C)(F)F)cc21 (stereo partly drawn) [compound 765, (2R)-N-((1S,2R)-3-((6′-(2,2-difluoropropyl)-3′,4′-dihydrospiro[cyclobutane-1,2′-pyrano[2,3-b]pyridin]-4′-yl)amino)-1-(3-fluoro-5-(1,3-thiazol-2-yl)benzyl)-2-hydroxypropyl)-2-methoxypropanamide] | 200 | 39 | 35 | – | – | – | – | – | – | – | – | IC50 [1, 7]: 0.054 µM; IC50 [2, 8]: 0.7 µM; IC50 [5, 9]: 0.021 µM |
| COCC(=O)N[C@@H](Cc1ccc(F)c(F)c1)[C@H](O)CN[C@H]1CC(C)(C)Oc2ncc(CC(C)(C)C)cc21 [compound 676] | 2000 | – | – | 0.011 | 2.9 | 411 | 0.01 | 463 | – | – | – | – |
| CC(=O)N[C@@H](Cc1cccc(-c2ccncc2)c1)[C@H](O)CN[C@H]1CC2(CCC2)Oc2ccc(CC(C)(C)C)cc21 [compound 618] | 160 | – | – | – | – | 344 | – | 413 | 0.038 | 0.3 | 0.031 | – |
| CO[C@H](C)C(=O)N[C@@H](Cc1ccccc1)[C@H](O)CN[C@H]1CC2(CCC2)Oc2c(Br)cc(CC(C)C)cc21 [compound 545] | 1100 | 775 | 775 | – | – | – | – | – | – | – | – | IC50 ([1]; HEK293, HEK cells, read-out: HEK cell assay): 1.49 µM; IC50 [2, 8]: 8.2 µM; IC50 ([5]; BACE enzyme assay, read-out: BACE1 FRET assay): 0.007 µM |
| COCC(=O)N[C@@H](Cc1cccc(F)c1)[C@H](O)CN[C@H]1CC2(CCC2)Oc2c1cc(CC(C)(C)OC)cc2-n1ccnc1.O=C(O)C(F)(F)F [Example 423] | 100 | – | – | – | – | 132 | – | 35 | 0.063 | 0.3 | 0.579 | – |
| CCC(=O)N[C@@H](Cc1ccc2c(c1)OCO2)[C@H](O)CN[C@H]1CC2(CCC2)Oc2ncc(CC(C)C)cc21 [compound 726, N-((1S,2R)-1-(1,3-benzodioxol-5-ylmethyl)-2-hydroxy-3-(((4′S)-6′-(2-methylpropyl)-3′,4′-dihydrospiro[cyclobutane-1,2′-pyrano[2,3-b]pyridin]-4′-yl)amino)propyl)propanamide] | ≤ 30 | – | – | 0.048 | 1.4 | 173 | 0.044 | 34 | – | – | – | – |

From patent publication US8163909B2, “Substituted hydroxyethyl amine compounds as beta-secretase modulators and methods of use” (Amgen Inc., priority 2007, dated 2012)
